Reference: patent US7902252B2, “Inhibitors of D-amino acid oxidase” (Sepracor, Inc., priority 2007, dated 2011)

biological target: Human DAAO (Homo sapiens, UniProt P14920); assay: D-Amino Acid Oxidase enzyme assay (D-serine, horseradish peroxidase/Amplex Red coupled fluorescence); format: biochemical; conditions: D-serine 5 mM, pH 7.4
Experimental: DAAO enzyme activity was measured using the substrate D-serine at its Michaelis-Menton Km of 5 mM. The rate of oxidation is measured as a rate of production of hydrogen peroxide, which was detected using the enzyme horseradish peroxidase (Sigma cat. No. P-8375). This coupled reaction uses the enzyme substrate Amplex Red (Molecular Probes), which is converted to the fluorescent reaction product, resorufin (excitation 530-560 nm; emission ˜590 nm). Although DAAO has a higher pH optimum, all reagents were prepared in 50 mM sodium phosphate buffer at pH 7.4 and inhibition curves were generated at this pH.
The final concentrations of components in 200 μl total volume per well (black clear-bottom 96-well plate, Costar) were:
(a) Horseradish peroxidase: 4 Units per mL
(d) Amplex Red reagent: 50 uM
The reactions were initiated by addition of DAAO enzyme and the fluorescence was monitored. H2O2 was added at 16 uM final concentration to a control well on each plate to test for compound interference with a coupled enzyme. Inhibition curves were generated in the presence of varying concentrations of the inhibitor and IC50 values were calculated for each inhibitor.

Sequence of Human DAAO (P14920 whole entry): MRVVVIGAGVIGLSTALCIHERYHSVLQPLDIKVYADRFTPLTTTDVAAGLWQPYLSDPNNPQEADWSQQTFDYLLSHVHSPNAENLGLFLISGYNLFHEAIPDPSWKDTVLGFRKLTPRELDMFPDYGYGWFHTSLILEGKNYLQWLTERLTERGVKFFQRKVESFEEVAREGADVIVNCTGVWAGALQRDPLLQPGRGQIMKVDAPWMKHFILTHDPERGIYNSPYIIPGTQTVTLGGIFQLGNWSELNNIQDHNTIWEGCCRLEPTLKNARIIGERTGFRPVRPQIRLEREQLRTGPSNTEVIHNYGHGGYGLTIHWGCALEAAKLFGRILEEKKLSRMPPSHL

IC50 | Structure (SMILES)
≤ 100 µM | O=C(O)c1cc2c([nH]1)CCC2CCc1ccccc1 (single isomer, unassigned) [Compound 20, 4-phenethyl-1,4,5,6-tetrahydrocyclopenta[b]pyrrole-2-carboxylic acid]
≤ 1 µM | O=C(O)c1cc2c([nH]1)C(CCc1ccccc1)CC2 (single isomer, unassigned) [Compound 28, 6-phenethyl-1,4,5,6-tetrahydrocyclopenta[b]pyrrole-2-carboxylic acid]
≤ 1 µM | O=C(O)c1cc2c([nH]1)CCC2Cc1ccc(F)cc1 (single isomer, unassigned) [Compound 41, 4-(4-fluorobenzyl)-1,4,5,6-tetrahydrocyclopenta[b]pyrrole-2-carboxylic acid]
≤ 100 µM | O=C(O)c1cc2c([nH]1)CCC2Cc1ccc(F)cc1F (single isomer, unassigned) [Compound 46, 4-(2,4-difluorobenzyl)-1,4,5,6-tetrahydrocyclopenta[b]pyrrole-2-carboxylic acid]
≤ 100 µM | Cc1cc(F)ccc1CC1CCc2[nH]c(C(=O)O)cc21 (single isomer, unassigned) [Compound 52, 4-(4-fluoro-2-methylbenzyl)-1,4,5,6-tetrahydrocyclopenta[b]pyrrole-2-carboxylic acid]
≤ 100 µM | O=C(O)c1cc2c([nH]1)CCC2Cc1ccc(Cl)c(Cl)c1 (single isomer, unassigned) [Compound 58, 4-(3,4-dichlorobenzyl)-1,4,5,6-tetrahydrocyclopenta[b]pyrrole-2-carboxylic acid]
≤ 100 µM | COc1cccc(CC2CCc3[nH]c(C(=O)O)cc32)c1 (single isomer, unassigned) [Compound 67, 4-(3-methoxybenzyl)-1,4,5,6-tetrahydrocyclopenta[b]pyrrole-2-carboxylic acid]
≤ 100 µM | O=C(O)c1cc2c([nH]1)CCC2Cc1cccc(-c2ccc[nH]2)c1 (single isomer, unassigned) [Compound 92, 4-(3-(1H-pyrrol-2-yl)benzyl)-1,4,5,6-tetrahydrocyclopenta[b]pyrrole-2-carboxylic acid]
≤ 100 µM | O=C(O)c1cc2c([nH]1)CCC2c1cccc(F)c1 (single isomer, unassigned) [Compound 95, 4-(3-fluorophenyl)-1,4,5,6-tetrahydrocyclopenta[b]pyrrole-2-carboxylic acid]
≤ 100 µM | O=C(O)c1cc2c([nH]1)CCC2c1cc(F)cc(F)c1 (single isomer, unassigned) [Compound 99, 4-(3,5-difluorophenyl)-1,4,5,6-tetrahydrocyclopenta[b]pyrrole-2-carboxylic acid]
≤ 1 µM | O=C(O)c1cc2c([nH]1)C(c1ccc(-c3ccccc3)cc1)CC2 (single isomer, unassigned) [Compound 119, 6-(biphenyl-4-yl)-1,4,5,6-tetrahydrocyclopenta[b]pyrrole-2-carboxylic acid]
≤ 100 µM | O=C(O)c1cc2c([nH]1)C(CCCc1ccccc1)CC2 (single isomer, unassigned) [Compound 135, 6-(3-phenylpropyl)-1,4,5,6-tetrahydrocyclopenta[b]pyrrole-2-carboxylic acid]
≤ 1 µM | O=C(O)c1cc2c([nH]1)C(CCCc1ccccc1)CC2 (single isomer, unassigned) [Compound 136, 6-(3-phenylpropyl)-1,4,5,6-tetrahydrocyclopenta[b]pyrrole-2-carboxylic acid]
≤ 100 µM | O=C(O)c1cc2c([nH]1)CCC2=O [Compound 2, 4-oxo-1,4,5,6-tetrahydrocyclopenta[b]pyrrole-2-carboxylic acid]
> 100 µM | CC(C)(C)c1c(C(=O)O)[nH]c2c1C(=O)CC2 [Compound 3, 3-tert-butyl-4-oxo-1,4,5,6-tetrahydrocyclopenta[b]pyrrole-2-carboxylic acid]
≤ 1 µM | O=C(O)c1cc2c([nH]1)CCC2CC1CCCCC1 (stereo not shown) [Compound 12, 4-(cyclohexylmethyl)-1,4,5,6-tetrahydrocyclopenta[b]pyrrole-2-carboxylic acid]
≤ 100 µM | O=C(O)c1cc2c([nH]1)CC/C2=C\c1ccc(F)cc1 [Compound 13, (E)-4-(4-fluorobenzylidene)-1,4,5,6-tetrahydrocyclopenta[b]pyrrole-2-carboxylic acid]
≤ 0.1 µM | O=C(O)c1cc2c([nH]1)CCC2Cc1ccccc1 (stereo not shown) [Compound 17, 4-benzyl-1,4,5,6-tetrahydrocyclopenta[b]pyrrole-2-carboxylic acid]
≤ 1 µM | O=C(O)c1cc2c([nH]1)CC(F)(F)C2 [Compound 21, 5,5-difluoro-1,4,5,6-tetrahydrocyclopenta[b]pyrrole-2-carboxylic acid]
≤ 100 µM | O=C(O)c1cc2c([nH]1)CC(Cc1ccccc1)C2 (stereo not shown) [Compound 23, 5-benzyl-1,4,5,6-tetrahydrocyclopenta[b]pyrrole-2-carboxylic acid]
≤ 1 µM | O=C(O)c1cc2c([nH]1)C(=O)CC2 [Compound 24, 6-oxo-1,4,5,6-tetrahydro-cyclopenta[b]pyrrole-2-carboxylic acid]
≤ 100 µM | Cc1c(C(=O)O)[nH]c2c1C(=O)CCC2 [Compound 31, 3-methyl-4-oxo-4,5,6,7-tetrahydro-1H-indole-2-carboxylic acid]

More lines, now with the values behind:

Structure (SMILES) | IC50
O=C(O)c1cc2c([nH]1)C(CCc1ccccc1)CC2 (single isomer, unassigned) [Compound 29, 6-phenethyl-1,4,5,6-tetrahydrocyclopenta[b]pyrrole-2-carboxylic acid] | ≤ 100 µM
O=C(O)c1cc2c([nH]1)CCC2Cc1ccc(F)cc1 (single isomer, unassigned) [Compound 40, 4-(4-fluorobenzyl)-1,4,5,6-tetrahydrocyclopenta[b]pyrrole-2-carboxylic acid] | ≤ 0.1 µM
O=C(O)c1cc2c([nH]1)CCC2Cc1ccc(F)c(F)c1 (single isomer, unassigned) [Compound 43, 4-(3,4-difluorobenzyl)-1,4,5,6-tetrahydrocyclopenta[b]pyrrole-2-carboxylic acid] | ≤ 100 µM
O=C(O)c1cc2c([nH]1)CCC2Cc1ccc(Br)cc1 (single isomer, unassigned) [Compound 61, 4-(4-bromobenzyl)-1,4,5,6-tetrahydrocyclopenta[b]pyrrole-2-carboxylic acid] | ≤ 100 µM
O=C(O)c1cc2c([nH]1)CCC2Cc1ccc2ccccc2c1 (single isomer, unassigned) [Compound 79, 4-(naphthalen-2-ylmethyl)-1,4,5,6-tetrahydrocyclopenta[b]pyrrole-2-carboxylic acid] | ≤ 1 µM
O=C(O)c1cc2c([nH]1)CCC2Cc1cccc(-c2ccco2)c1 (single isomer, unassigned) [Compound 88, 4-(3-(furan-2-yl)benzyl)-1,4,5,6-tetrahydrocyclopenta[b]pyrrole-2-carboxylic acid] | ≤ 100 µM
O=C(O)c1cc2c([nH]1)C(c1ccc(-c3ccccc3)cc1)CC2 (single isomer, unassigned) [Compound 120, 6-(biphenyl-4-yl)-1,4,5,6-tetrahydrocyclopenta[b]pyrrole-2-carboxylic acid] | > 100 µM
O=C(O)c1cc2c([nH]1)C(Cc1cccc(Cl)c1)CC2 (single isomer, unassigned) [Compound 122, 6-(3-chlorobenzyl)-1,4,5,6-tetrahydrocyclopenta[b]pyrrole-2-carboxylic acid] | ≤ 1 µM
O=C(O)c1cc2c([nH]1)C(Cc1cccc(Br)c1)CC2 (single isomer, unassigned) [Compound 126, 6-(3-bromobenzyl)-1,4,5,6-tetrahydrocyclopenta[b]pyrrole-2-carboxylic acid] | ≤ 100 µM
O=C(O)c1cc2c([nH]1)C(Cc1cccc(Br)c1)CC2 (single isomer, unassigned) [Compound 127, 6-(3-bromobenzyl)-1,4,5,6-tetrahydrocyclopenta[b]pyrrole-2-carboxylic acid] | ≤ 0.1 µM
COc1cccc(CC2CCc3cc(C(=O)O)[nH]c32)c1 (single isomer, unassigned) [Compound 130, 6-(3-methoxybenzyl)-1,4,5,6-tetrahydrocyclopenta[b]pyrrole-2-carboxylic acid] | ≤ 100 µM
O=C(O)c1cc2c([nH]1)CC1CC21 (single isomer, unassigned) [Compound 139, 1a,4,5,5a-tetrahydro-1H-4-aza-cyclopropa[α]pentalene-3-carboxylic acid] | ≤ 1 µM
CC(C)C1CCc2[nH]c(C(=O)O)cc21 (stereo not shown) [Compound 10, 4-isopropyl-1,4,5,6-tetrahydrocyclopenta[b]pyrrole-2-carboxylic acid] | ≤ 1 µM
CC(C)CC1CCc2[nH]c(C(=O)O)cc21 (stereo not shown) [Compound 11, 4-isobutyl-1,4,5,6-tetrahydrocyclopenta[b]pyrrole-2-carboxylic acid] | ≤ 1 µM
CC1Cc2cc(C(=O)O)[nH]c2C1 (stereo not shown) [Compound 22, 5-methyl-1,4,5,6-tetrahydrocyclopenta[b]pyrrole-2-carboxylic acid] | ≤ 1 µM
O=C(O)c1cc2c([nH]1)C(Cc1ccccc1)CC2 (stereo not shown) [Compound 26, 6-benzyl-1,4,5,6-tetrahydrocyclopenta[b]pyrrole-2-carboxylic acid] | ≤ 0.1 µM
O=C(O)c1cc2c([nH]1)C(CCc1ccccc1)CC2 (stereo not shown) [Compound 27, 6-phenethyl-1,4,5,6-tetrahydrocyclopenta[b]pyrrole-2-carboxylic acid] | ≤ 1 µM
O=C(O)c1cc2c([nH]1)CCCC2 [Compound 30, 4,5,6,7-tetrahydro-1H-indole-2-carboxylic acid] | ≤ 1 µM
